{
  "source": "patent US11926642B2",
  "about": "“Compounds and methods for the treatment of COVID-19” (priority 2020, dated 2024)",
  "tested_on": "MA15-CoV",
  "design": "species or system mice",
  "conditions": "mouse, in vivo; for decline in day 4 lung viral titers: sc",
  "note": "Where “and” joins values, the source holds several entries; their conditions need not be identical. Equal values may be shown once. Read-outs that look alike come from different tables or passages of the source.",
  "data": [
    {"compound": "COc1cccc2[nH]c(C(=O)N[C@@H](CC(C)C)C(=O)N[C@@H](C[C@@H]3CCNC3=O)C(=O)CO)cc12", "note": "[parent compound, N-((1S)-1-{[((1S)-3-hydroxy-2-oxo-1-{[(3S)-2-oxopyrrolidin-3-yl]methyl}propyl)amino]carbonyl}-3-methylbutyl)-4-methoxy-1H-indole-2-carboxamide]", "values": [
      {"measurement": "reduction of lung viral titers on day 4 post-infection", "result": "≈ 2.0 log 10 and ≈ 1.5 log 10 and ~1.0 log 10"},
      {"measurement": "weight loss and histopathologic signs of disease", "result": "decreased"},
      {"measurement": "weight loss caused by the virus", "result": "reduced"},
      {"measurement": "decline in day 4 lung viral titers", "setting": "30 mg/kg", "result": "≈ 1.5 log 10"},
      {"measurement": "decline in day 4 lung viral titers", "setting": "100 mg/kg", "result": "≈ 3 log 10"},
      {"measurement": "decline in day 4 lung viral titers", "setting": "300 mg/kg", "result": "≥ 3.5", "unit": "log 10"}
    ]}
  ]
}
